Test results as given in patent US8188101B2 (AstraZeneca AB, priority 2008, dated 2012).

Tested on: Aβ42 release
Assay: Aβ release in cells stably expressing APPswe, Meso Scale Discovery electrochemiluminescence assay
Assay type: cell-based, Human
Conditions: Homo sapiens, SH-SY5Y, HEK or SH-SY5Y cells stably expressing APPswe, 4-6 hours incubation with test compound
Experimental: The level of activity of the compounds on Aβ release was tested using the following method:
Compounds were diluted in 100% DMSO and stored at […] prior to use. Human Embryonic Kidney (HEK) or Human Neuroblastoma (SH-SY5Y) cell lines stably expressing APP with the Swedish mutation (APPswe) were cultured using Dulbecco's Modified Eagles medium (DMEM) supplied with […] glucose, Na-pyruvate and GlutaMAX with 10% FBS, 100 U/ml penicillin-streptomycin (PEST) respectively, 1× non-essential amino acids (NEAA), […] Hepes, 100 μg/ml Zeocine. Cells at about 80% confluence were washed with PBS, detached from culture flasks using 1× Trypsin/EDTA diluted in PBS, re-suspended in cell media and plated in 384-well poly-d-lysine coated cell culture plates at about 10000-15000 cells/well, in 25 μL cell media. Optionally, cryo-preserved cells (frozen and stored at −140° C. in 90% cell media and 10% DMSO) were thawed, washed and plated as above. Next the cells were incubated for 15-24 h at 37° C. and 5% CO2, after which cell medium was changed. Fresh medium containing test compound diluted ×200 from prepared compound plate was added to the cells before further incubation for 4-6 hours at 37° C. and 5% CO2. After incubation with test compound the amount of Aβ peptides, including Aβ42, Aβ40, Aβ39, Aβ38 and Aβ37, secreted to the cell medium was analyzed using the electrochemiluminescence assay technology from Meso Scale Discovery Technology, in combination with specific antibodies raised against the different Aβ peptides. Potential cytotoxic effects of the compounds were usually assayed by measuring the ATP content (ViaLight) from cell lysate.

| SMILES | IC50 |
| --- | --- |
| CC(=O)N1CCc2nc(Nc3ccc(-c4cnco4)cc3)nc(N(CCO)c3ccccc3)c2C1 [Example 28, 1-(4-((2-Hydroxyethyl)(phenyl)amino)-2-(4-(oxazol-5-yl)phenylamino)-7,8-dihydropyrido[4,3-d]pyrimidin-6(5H)-yl)ethanone] | 0.794 µM |
| CC(=O)N1CCc2nc(Nc3ccc(-c4cnco4)cc3)nc(Nc3cccc(CO)c3)c2C1 [Example 29, 1-(4-(3-(Hydroxymethyl)phenylamino)-2-(4-(oxazol-5-yl)phenylamino)-7,8-dihydropyrido[4,3-d]pyrimidin-6(5H)-yl)ethanone] | 0.631 µM |
| CC(=O)N1CCc2nc(Nc3ccc(-c4cnco4)cc3)nc(N3c4ccccc4C[C@H]3CO)c2C1 [Example 30] | 1 µM |
| CC(=O)N1CCc2nc(Nc3ccc(-c4cnco4)cc3)nc(N(CCC#N)C3CC3)c2C1 [Example 31, 3-((6-Acetyl-2-(4-(oxazol-5-yl)phenylamino)-5,6,7,8-tetrahydropyrido[4,3-d]pyrimidin-4-yl)(cyclopropyl)amino)propanenitrile] | 0.794 µM |
| CC(=O)N1CCc2nc(Nc3ccc(-c4cnco4)cc3)nc(N(CCO)Cc3ccccc3)c2C1 [Example 32, 1-(4-(Benzyl(2-hydroxyethyl)amino)-2-(4-(oxazol-5-yl)phenylamino)-7,8-dihydropyrido[4,3-d]pyrimidin-6(5H)-yl)ethanone] | 0.794 µM |
| CC(=O)c1cccc(Nc2nc(Nc3ccc(-c4cnco4)cc3)nc3c2CN(C(C)=O)CC3)c1 [Example 33, 1-(3-(6-Acetyl-2-(4-(oxazol-5-yl)phenylamino)-5,6,7,8-tetrahydropyrido[4,3-d]pyrimidin-4-ylamino)phenyl)ethanone] | 1.26 µM |
| CC(=O)N1CCc2nc(Nc3ccc(-c4cnco4)cc3)nc(N(C)CC(O)c3ccccc3)c2C1 (stereo not shown) [Example 34, 1-(4-((2-Hydroxy-2-phenylethyl)(methyl)amino)-2-(4-(oxazol-5-yl)phenylamino)-7,8-dihydropyrido[4,3-d]pyrimidin-6(5H)-yl)ethanone] | 3.16 µM |
| CC(=O)N1CCc2nc(Nc3ccc(-c4cnco4)cc3)nc(NC3(CO)CCCC3)c2C1 [Example 35, 1-(4-(1-(Hydroxymethyl)cyclopentylamino)-2-(4-(oxazol-5-yl)phenylamino)-7,8-dihydropyrido[4,3-d]pyrimidin-6(5H)-yl)ethanone] | 3.16 µM |
| CC(=O)N1CCc2nc(Nc3ccc(-c4cnco4)cc3)nc(N(C)Cc3cccnc3)c2C1 [Example 36, 1-(4-(Methyl(pyridin-3-ylmethyl)amino)-2-(4-(oxazol-5-yl)phenylamino)-7,8-dihydropyrido[4,3-d]pyrimidin-6(5H)-yl)ethanone] | 5.01 µM |
| CC(=O)N1CCc2nc(Nc3ccc(-c4cnco4)cc3)nc(N3c4ccccc4C[C@@H]3CO)c2C1 [Example 37] | 10 µM |
| Cc1nccn1-c1ccc(Nc2nc3c(c(Cc4ccccc4)n2)COCC3)cc1 [Example 45, 4-Benzyl-N-(4-(2-methyl-1H-imidazol-1-yl)phenyl)-7,8-dihydro-5H-pyrano[4,3-d]pyrimidin-2-amine] | 0.631 µM |
| Cc1nccn1-c1ccc(Nc2nc3c(c(CC4CCOCC4)n2)CSCC3)cc1 [Example 46, N-(4-(2-Methyl-1H-imidazol-1-yl)phenyl)-4-((tetrahydro-2H-pyran-4-yl)methyl)-7,8-dihydro-5H-thiopyrano[4,3-d]pyrimidin-2-amine] | 1.58 µM |
| Cc1nccn1-c1ccc(Nc2nc3c(c(Cc4ccccc4F)n2)CN(CCO)CC3)cc1 [Example 56, 2-(4-(2-Fluorobenzyl)-2-(4-(2-methyl-1H-imidazol-1-yl)phenylamino)-7,8-dihydropyrido[4,3-d]pyrimidin-6(5H)-yl)ethanol] | 0.398 µM |
| COc1cccc(Cc2nc(Nc3ccc(-n4ccnc4C)cc3)nc3c2CN(CCO)CC3)c1 [Example 57, 2-(4-(3-Methoxybenzyl)-2-(4-(2-methyl-1H-imidazol-1-yl)phenylamino)-7,8-dihydropyrido[4,3-d]pyrimidin-6(5H)-yl)ethanol] | 0.398 µM |
| CC(=O)N1CCc2nc(Nc3ccc(-n4ccnc4C)cc3)nc(Cc3ccc(C)cc3)c2C1 [Example 59, 1-(2-(4-(2-Methyl-1H-imidazol-1-yl)phenylamino)-4-(4-methylbenzyl)-7,8-dihydropyrido[4,3-d]pyrimidin-6(5H)-yl)ethanone] | 0.398 µM |

More lines, now with the values ahead:

| IC50 | SMILES |
| --- | --- |
| 0.398 µM | CN1CCc2nc(Nc3ccc(-c4cnn(C)c4)cc3)nc(N(CCO)c3ccccc3)c2C1 [Example 38, 2-((6-Methyl-2-(4-(1-methyl-1H-pyrazol-4-yl)phenylamino)-5,6,7,8-tetrahydropyrido[4,3-d]pyrimidin-4-yl)(phenyl)amino)ethanol] |
| 0.158 µM | CCCN1CCc2nc(Nc3ccc(-c4cnn(C)c4)cc3)nc(N(CCO)c3ccccc3)c2C1 [Example 39, 2-((2-(4-(1-Methyl-1H-pyrazol-4-yl)phenylamino)-6-propyl-5,6,7,8-tetrahydropyrido[4,3-d]pyrimidin-4-yl)(phenyl)amino)ethanol] |
| 0.2 µM | Cc1nccn1-c1ccc(Nc2nc3c(c(Cc4ccccc4)n2)CN(CCO)CC3)cc1 [Example 41, 2-(4-Benzyl-2-(4-(2-methyl-1H-imidazol-1-yl)phenylamino)-7,8-dihydropyrido[4,3-d]pyrimidin-6(5H)-yl)ethanol] |
| 0.398 µM | Cc1nccn1-c1ccc(Nc2nc3c(c(Cc4ccccc4)n2)CN(C)CC3)cc1 [Example 42, 4-Benzyl-6-methyl-N-(4-(2-methyl-1H-imidazol-1-yl)phenyl)-5,6,7,8-tetrahydropyrido[4,3-d]pyrimidin-2-amine] |
| 0.0631 µM | COc1cc(Nc2nc3c(c(Cc4ccccc4)n2)COCC3)ccc1-n1cnc(C)c1 [Example 43, 4-Benzyl-N-(3-methoxy-4-(4-methyl-1H-imidazol-1-yl)phenyl)-7,8-dihydro-5H-pyrano[4,3-d]pyrimidin-2-amine] |
| 0.0794 µM | COc1cc(Nc2nc3c(c(Cc4ccc(F)cc4)n2)C[S+]([O-])CC3)ccc1-n1cnc(C)c1 (stereo not shown) [Example 44, 4-(4-Fluorobenzyl)-N-[3-methoxy-4-(4-methyl-1H-imidazol-1-yl)phenyl]-7,8-dihydro-5H-thiopyrano[4,3-d]pyrimidin-2-amine 6-oxide] |
| 0.0794 µM | Cc1nccn1-c1ccc(Nc2nc(CCC3CCCCC3)c3c(n2)CCN(CCO)C3)cc1 [Example 47, 2-(4-(2-Cyclohexylethyl)-2-(4-(2-methyl-1H-imidazol-1-yl)phenylamino)-7,8-dihydropyrido[4,3-d]pyrimidin-6(5H)-yl)ethanol] |
| 0.2 µM | Cc1ccc(Cc2nc(Nc3ccc(-n4ccnc4C)cc3)nc3c2CN(CCO)CC3)cc1 [Example 48, 2-(2-(4-(2-Methyl-1H-imidazol-1-yl)phenylamino)-4-(4-methylbenzyl)-7,8-dihydropyrido[4,3-d]pyrimidin-6(5H)-yl)ethanol] |
| 0.251 µM | Cc1nccn1-c1ccc(Nc2nc(CCc3cccc(F)c3)c3c(n2)CCN(CCO)C3)cc1 [Example 49, 2-(4-(3-Fluorophenethyl)-2-(4-(2-methyl-1H-imidazol-1-yl)phenylamino)-7,8-dihydropyrido[4,3-d]pyrimidin-6(5H)-yl)ethanol] |
| 0.251 µM | Cc1ccc(Cc2nc(Nc3ccc(-n4ccnc4C)cc3)nc3c2CN(C)CC3)cc1 [Example 50, 6-Methyl-N-(4-(2-methyl-1H-imidazol-1-yl)phenyl)-4-(4-methylbenzyl)-5,6,7,8-tetrahydropyrido[4,3-d]pyrimidin-2-amine] |
| 0.251 µM | Cc1nccn1-c1ccc(Nc2nc(CCc3cccc(F)c3)c3c(n2)CCN(C)C3)cc1 [Example 51, 4-(3-Fluorophenethyl)-6-methyl-N-(4-(2-methyl-1H-imidazol-1-yl)phenyl)-5,6,7,8-tetrahydropyrido[4,3-d]pyrimidin-2-amine] |
| 0.316 µM | Cc1nccn1-c1ccc(Nc2nc3c(c(Cc4ccccc4F)n2)CN(C)CC3)cc1 [Example 52, 4-(2-Fluorobenzyl)-6-methyl-N-(4-(2-methyl-1H-imidazol-1-yl)phenyl)-5,6,7,8-tetrahydropyrido[4,3-d]pyrimidin-2-amine] |
| 0.316 µM | COc1cccc(Cc2nc(Nc3ccc(-n4ccnc4C)cc3)nc3c2CN(C)CC3)c1 [Example 53, 4-(3-Methoxybenzyl)-6-methyl-N-(4-(2-methyl-1H-imidazol-1-yl)phenyl)-5,6,7,8-tetrahydropyrido[4,3-d]pyrimidin-2-amine] |
| 0.316 µM | Cc1nccn1-c1ccc(Nc2nc(CCC3CCCCC3)c3c(n2)CCN(C)C3)cc1 [Example 54, 4-(2-Cyclohexylethyl)-6-methyl-N-(4-(2-methyl-1H-imidazol-1-yl)phenyl)-5,6,7,8-tetrahydropyrido[4,3-d]pyrimidin-2-amine] |
| 0.316 µM | Cc1nccn1-c1ccc(Nc2nc3c(c(CC4CCCC4)n2)CN(C)CC3)cc1 [Example 55, 4-(Cyclopentylmethyl)-6-methyl-N-(4-(2-methyl-1H-imidazol-1-yl)phenyl)-5,6,7,8-tetrahydropyrido[4,3-d]pyrimidin-2-amine] |
| 0.2 µM | CC(=O)N1CCc2nc(Nc3ccc(-n4ccnc4C)cc3)nc(CCC3CCCCC3)c2C1 [Example 58, 1-(4-(2-Cyclohexylethyl)-2-(4-(2-methyl-1H-imidazol-1-yl)phenylamino)-7,8-dihydropyrido[4,3-d]pyrimidin-6(5H)-yl)ethanone] |
